System: Daoy, ONS-76, HD-MB03, and D341Med wild-type cells
Assay: Cell proliferation assay (cell counting)
Type: cell-based, human
Details: 1 µM C29, pre-incubation prior to cell seeding, all tested cell lines
Experimental: To confirm the efficacy of C29 on various parameters of cancer cell aggressiveness, we first performed cell proliferation assays at longer time points.
Figure 4 C29 reduces proliferation, migration, and invasion of naïve MB cells. (A) Proliferation of Daoy, ONS-76, HD-MB03, and D341Med wild-type cells after treatment with 1 μM C29 or the control (DMSO), n = 3. (B) Clonogenic assay on Daoy (n = 4), ONS-76 (n = 3) and HD -MB03 (n = 5) cells after treatment with control (DMSO) or C29 (1 μM or 2.5 μM). Scale = 500 μm. (C) Cell migration through the Boyden chamber of Daoy and ONS-76 cells specifically attracted by 200 ng/mL CXCL8. Results are expressed as percentage of control (DMSO) (n = 3). […] Results are expressed as percentage of day 0, n = 4. […]
1500 Daoy, ONS ‐76, HD ‐MB03 or D341 Med cells were sown in triplicate in plates with six wells and the cells were counted daily for 8 days using a Coulter counter (Ville‐ pinte). The relative number of cells (compared to day 1) was determined daily. […]
Y = Y0 * exp(k * X) (Y= Cell number at day X; Y0= Cell number at day 0 (graphically calculated); X= Day following cell plating (cells plated at X0=0); k= Exponential growth constant rate. Doubling times were compared. […]
were seeded in 6‐well plates. […] Cell death was detected by PE chan‐ nel using FACS Cytoflex (Beckman) immediately after labelling the cells with 1ug/ml pro‐ pidium iodide (Miltenyi Biotec). […]

Structure (SMILES): O=C(Nc1cccc(Cl)c1)Nc1nc2ccc([N+](=O)[O-])cc2s1 [C29, 1-(3-chlorophenyl)-3-(6-nitrobenzo[d]thiazol-2-yl) urea]
- Proliferation: completely inhibited proliferation
